Patent publication US11332470B2, “CXCR4 inhibitors and uses thereof” (X4 Pharmaceuticals, Inc., priority 2016, dated 2022)

Tests used:
in vitro = conditions: human, Caco-2, pH 7.4
Procedure: The goal of this assay was to evaluate the intestinal absorption potential of drug candidates using Caco-2 cell lines.
1. Prewarm Prewarm HBSS Buffer in 37° C. water bath
2. Sonicate Take compounds from −20° C., sonicate for a few minutes (no less than 1 minute)
• Donor solution buffer: For A-to-B Direction: HBSS buffer with 0.3% DMSO and 5 μM LY: add 150 μL DMSO and 50 μL LY (5 mM) into 50 ml HBSS buffer (pH 7.4). HBSS buffer with 0.1% DMSO and 5 μM LY: add 50 μL DMSO and 50 μL LY (5 mM) into 50 mL HBSS buffer (pH 7.4). For B-to-A Direction: HBSS buffer with 0.3% DMSO: add 150 μL DMSO into 50 ml HBSS buffer (pH 7.4). HBSS buffer with 0.1% DMSO: add 50 μL DMSO into 50 ml HBSS buffer (pH 7.4). Receiver Solution Buffer: For A-to-B Direction: Prepare HBSS buffer with 0.4% DMSO: add 200 μL DMSO into 50 ml HBSS buffer (pH 7.4). For B-to-A Direction: Prepare HBSS buffer with 0.4% DMSO and 5 μM LY: add 200 μL DMSO and 50 μL LY (5 mM) into 50 ml HBSS buffer (pH 7.4).
4. Measure TEER Take cell culture plate out of incubator, wash the cell monolayers with HBSS buffer, and then measure TEER values at Rm temperature. 5. Centrifuge Centrifuge the compound solution (from step 3) at 4000 rpm for 5 min before loading to donor chambers. 6. Dosing Add solution based on the volumes listed in the following table (make sure to take extra 100 μL of donor sample for TO as Backup).
7. Apical LYT0 samples To determine LY concentration in the apical chamber, take 100 μL sample from apical chambers into an opaque plate for LYT0. 8. Prewarm Prewarm apical and basolateral plates at 37° C. for about 5 min, then begin transport by placing the apical plate onto basolateral plate. 9. Incubation Keep the plates in incubator at 37° C. for 90 min. 10.
Prepare Working Solution in MeOH/H2O (1:1)
• Prepare 1×solution: 3 μL (20×)+57 μL of 0.4% DMSO HBSS+60 μL ACN with IS (Osalmid or Imipramine)−120 μL (1×) 11. Transport termination Separate the apical plate from the basolateral plate after 90-min incubation. 12. Measure LY Take 100 μL samples from basolateral plate to an opaque plate as LYT90. 13. Measure LY concentrations for LYT0 and LYT90 by Fluorometer (at excitation of 485 nm/emission of 535 nm). 14.
Study details: Test concentration 10 μM
Test systems: Caco-2/HBSS solution
Incubation conditions: 0, 90 min at 37° C.
Sample size: Duplicates (n=2)
Bioanalytical method: LC-MS/MS
For Millicell-24 Cell Culture Plates: surface area of the membrane=0.7 cm^2, VA=0.8 mL (A-to-B) or 0.4 mL (B-to-A)
The compound numbers correspond to the compound numbers in Table 1.

[1] = target: T1, CXCR4 (Jurkat cells expressing CXCR4) (Homo sapiens, UniProt P61073); assay: Chemokine (CXCL12-AF647) binding inhibition assay; conditions: CXCL12-AF647 25 ng/mL, read-out: IC50 CXCL-12 binding Jurkat
T1 construct: Jurkat cells expressing CXCR4; endogenous in cells; host or cells: Jurkat
Procedure: Chemokine (CXCL12-AF647) Binding Inhibition Assay
Jurkat cells expressing CXCR4 were washed once with assay buffer (Hanks' balanced salt solution with 20 mM HEPES buffer and 0.2% bovine serum albumin, pH 7.4) and then incubated for 15 min at room temperature with the test compounds diluted in assay buffer at dose-dependent concentrations. Subsequently, CXCL12-AF647 (25 ng/mL) was added to the compound-incubated cells. The cells were incubated for 30 min at room temperature. Thereafter, the cells were washed twice in assay buffer, fixed in 1% paraformaldehyde in PBS, and analyzed on the FL4 channel of a FACSCalibur flow cytometer equipped with a 635-nm red diode laser (Becton Dickinson, San Jose, Calif., USA).
The percentages of inhibition of CXCL12-AF647 binding were calculated according to the formula: [1−((MFI−MFINC)/(MFIPC−MFINC))]×100 where MFI is the mean fluorescence intensity of the cells incubated with CXCL12-AF647 in the presence of the inhibitor, MFINC is the mean fluorescence intensity measured in the negative control (i.e., autofluorescence of unlabeled cells), and MFIPC is the mean fluorescence intensity of the positive control (i.e., cells exposed to CXCL12-AF647 alone).

CXCR4 (U87.CXCR4 cells) = target: T2, CXCR4 (U87.CXCR4 cells) (Homo sapiens, UniProt P61073); assay: Intracellular CXCL-12-induced calcium mobilization assay (FLIPR); format: cell-based; conditions: CXCL-12 25-50 ng/mL, read-out: IC50 CXCL-12 Ca2+ flux U87.CXCR4+
T2 construct: expressed in transfected cells; host or cells: U87 (U87.CXCR4)
Procedure: Intracellular CXCL-12-Induced Calcium Mobilization Assay
Intracellular calcium mobilization induced by chemokines or chemokine-derived peptides were evaluated using a calcium responsive fluorescent probe and a FLIPR system. The CXCR-4 transfected U87 cell line (U87.CXCR4) cells were seeded in gelatine-coated black-wall 96-well plates at 20,000 cells per well and incubated for 12 hours. Cells were then loaded with the fluorescent calcium probe Fluo-2 acetoxymethyl at 4 μM final concentration in assay buffer (Hanks' balanced salt solution with 20 mM HEPES buffer and 0.2% bovine serum albumin, pH 7.4) for 45 min at 37° C. The intracellular calcium mobilization induced by the CXCL-12 (25-50 ng/mL) was then measured at 37° C. by monitoring the fluorescence as a function of time in all the wells simultaneously using a fluorometric imaging plate reader (FLIPR Tetra, Molecular Devices).

T2 sequence (P61073 whole entry): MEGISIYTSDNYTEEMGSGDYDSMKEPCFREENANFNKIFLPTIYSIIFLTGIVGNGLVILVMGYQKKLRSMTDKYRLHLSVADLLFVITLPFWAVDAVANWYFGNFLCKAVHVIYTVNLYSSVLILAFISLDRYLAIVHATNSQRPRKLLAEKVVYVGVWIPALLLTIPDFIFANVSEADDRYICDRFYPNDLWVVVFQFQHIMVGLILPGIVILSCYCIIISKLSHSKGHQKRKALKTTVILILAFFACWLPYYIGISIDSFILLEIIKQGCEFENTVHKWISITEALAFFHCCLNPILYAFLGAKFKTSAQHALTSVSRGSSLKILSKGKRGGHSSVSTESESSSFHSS
T1 sequence (P61073 whole entry): as above

| SMILES | Papp A→B at 90 min, 10 μM (in vitro) | Papp B→A at 90 min, 10 μM (in vitro) | efflux ratio at 90 min, 10 μM (in vitro) | IC50 [1] | IC50 (CXCR4 (U87.CXCR4 cells)) |
| --- | --- | --- | --- | --- | --- |
| Cc1cccnc1C1CCCCN1Cc1cn2c(N3CCN(C)CC3)cccc2n1 (stereo not shown) [Compound I-1, 5-(4-methylpiperazin-1-yl)-2-((2-(3-methylpyridin-2-yl)piperidin-1-yl)methyl)imidazo[1,2-a]-pyridine] | 0.1 to 10 ×10⁻⁶ cm/s | 10 to 30 ×10⁻⁶ cm/s | 0.1 to 10 | 0.01 to 100 nM | 100 to 1000 nM |
| Cc1cccnc1C1CCCN1Cc1ccccc1-n1cccn1 (stereo not shown) [Compound I-4, 2-(1-(2-(1H-pyrazol-1-yl)benzyl)pyrrolidin-2-yl)-3-methylpyridine] | > 30 ×10⁻⁶ cm/s | 10 to 30 ×10⁻⁶ cm/s | 0.1 to 10 | ≥ 1000 nM | 100 to 1000 nM |
| Cc1cccnc1C1CCCN1Cc1cn2c(N3CCN(C)CC3)cccc2n1 (stereo not shown) [Compound I-6, 5-(4-methylpiperazin-1-yl)-2-((2-(3-methylpyridin-2-yl)pyrrolidin-1-yl)methyl)imidazo[1,2-a]-pyridine] | 0.1 to 10 ×10⁻⁶ cm/s | 10 to 30 ×10⁻⁶ cm/s | 10 to 30 | 0.01 to 100 nM | 0.01 to 100 nM |
| Cc1cccnc1C1CCCN1Cc1nc2cccc(N3CCN(C)CC3)n2c1Br (stereo not shown) [Compound I-7, 3-bromo-5-(4-methylpiperazin-1-yl)-2-((2-(3-methylpyridin-2-yl)pyrrolidin-1-yl)methyl)imi-dazo[1,2-a]pyridine] | 0.1 to 10 ×10⁻⁶ cm/s | 10 to 30 ×10⁻⁶ cm/s | 0.1 to 10 | 100 to 1000 nM | 100 to 1000 nM |
| Cc1cccnc1C1CCCN1Cc1nc2cccc(N3CCN(C)CC3)n2c1CO (stereo not shown) [Compound I-8, (5-(4-methylpiperazin-1-yl)-2-((2-(3-methylpyridin-2-yl)pyrrolidin-1-yl)methyl)imidazo[1,2-a]pyridin-3-yl)methanol] | 0.1 to 10 ×10⁻⁶ cm/s | 10 to 30 ×10⁻⁶ cm/s | > 30 | 0.01 to 100 nM | 100 to 1000 nM |
| Cc1cccnc1C1CCCN1Cc1nc2c(N3CCN(C)CC3)cccc2[nH]1 (stereo not shown) [Compound I-11] | 0.1 to 10 ×10⁻⁶ cm/s | 10 to 30 ×10⁻⁶ cm/s | 0.1 to 10 | 0.01 to 100 nM | 0.01 to 100 nM |
| CN1CCN(c2cccc3nc(CN4CCCC4c4nccc5ccccc45)cn23)CC1 (stereo not shown) [Compound I-14] | 0.1 to 10 ×10⁻⁶ cm/s | 10 to 30 ×10⁻⁶ cm/s | 0.1 to 10 | 0.01 to 100 nM | 100 to 1000 nM |
| CN1CCN(c2cccc3nc(CN4CCCC4c4ncccc4Cl)cn23)CC1 (stereo not shown) [Compound I-27] | 0.1 to 10 ×10⁻⁶ cm/s | 10 to 30 ×10⁻⁶ cm/s | 0.1 to 10 | 0.01 to 100 nM | 100 to 1000 nM |
| Cc1cccnc1C1CCCN1Cc1nc2cccc(N3CCN(C)C4(CC4)C3)c2[nH]1 (stereo not shown) [Compound I-28] | 0.1 to 10 ×10⁻⁶ cm/s | 10 to 30 ×10⁻⁶ cm/s | 0.1 to 10 | 100 to 1000 nM | 100 to 1000 nM |
| Cc1cccnc1C1CCCN1Cc1cn2c(N3CCN(C4CC4)CC3)cccc2n1 (stereo not shown) [Compound I-32] | 0.1 to 10 ×10⁻⁶ cm/s | 10 to 30 ×10⁻⁶ cm/s | 0.1 to 10 | 100 to 1000 nM | 100 to 1000 nM |
| Cc1cccnc1C1CCCN1Cc1nc2cccc(N3CCN(C)CC3)c2s1 (stereo not shown) [Compound I-37] | 10 to 30 ×10⁻⁶ cm/s | 10 to 30 ×10⁻⁶ cm/s | 0.1 to 10 | 100 to 1000 nM | ≥ 1000 nM |
| Cc1c(CN2CCCC2c2ncccc2Cl)nc2cccc(N3CCN(C)CC3)n12 (stereo not shown) [Compound I-47] | 0.1 to 10 ×10⁻⁶ cm/s | 10 to 30 ×10⁻⁶ cm/s | 0.1 to 10 | 0.01 to 100 nM | 100 to 1000 nM |
| Cc1cccnc1C1CCCN1Cc1nc2cccc(N3CCN4CCCC4C3)c2[nH]1 (stereo not shown) [Compound I-48] | 0.1 to 10 ×10⁻⁶ cm/s | 10 to 30 ×10⁻⁶ cm/s | 0.1 to 10 | 0.01 to 100 nM | 0.01 to 100 nM |
| CN1CCN(c2cccc3nc(CN4CCCC4c4nccs4)[nH]c23)CC1 (stereo not shown) [Compound I-49] | 10 to 30 ×10⁻⁶ cm/s | 10 to 30 ×10⁻⁶ cm/s | 0.1 to 10 | ≥ 1000 nM | ≥ 1000 nM |
| CN1CCN(c2cccc3nc(CN4CCCC4c4ncc[nH]4)cn23)CC1 (stereo not shown) [Compound I-50] | 0.1 to 10 ×10⁻⁶ cm/s | 10 to 30 ×10⁻⁶ cm/s | 0.1 to 10 | ≥ 1000 nM | ≥ 1000 nM |

Other lines, results leading:

| Papp A→B at 90 min, 10 μM (in vitro) | Papp B→A at 90 min, 10 μM (in vitro) | efflux ratio at 90 min, 10 μM (in vitro) | IC50 [1] | IC50 (CXCR4 (U87.CXCR4 cells)) | SMILES |
| --- | --- | --- | --- | --- | --- |
| > 30 ×10⁻⁶ cm/s | > 30 ×10⁻⁶ cm/s | 0.1 to 10 | ≥ 1000 nM | ≥ 1000 nM | Cc1cccnc1C1CCCCN1Cc1ccccc1-n1cccn1 (stereo not shown) [Compound I-2, 2-(1-(2-(1H-pyrazol-1-yl)benzyl)piperidin-2-yl)-3-methylpyridine] |
| 0.1 to 10 ×10⁻⁶ cm/s | 10 to 30 ×10⁻⁶ cm/s | 0.1 to 10 | 100 to 1000 nM | 100 to 1000 nM | Cc1cccnc1C1CCCN1Cc1nc2cccc(N3CCN(C)CC3)n2c1F (stereo not shown) [Compound I-34] |
| 0.1 to 10 ×10⁻⁶ cm/s | 10 to 30 ×10⁻⁶ cm/s | 0.1 to 10 | 100 to 1000 nM | ≥ 1000 nM | CN1CCN(c2cccc3nc(CN4CCCC4c4ncccc4Cl)c(F)n23)CC1 (stereo not shown) [Compound I-35] |
| 0.1 to 10 ×10⁻⁶ cm/s | > 30 ×10⁻⁶ cm/s | 0.1 to 10 | 100 to 1000 nM | ≥ 1000 nM | Cc1cccnc1C1CCCN1Cc1nccn1C1CCN(C)CC1 (stereo not shown) [Compound I-36] |
| 10 to 30 ×10⁻⁶ cm/s | 10 to 30 ×10⁻⁶ cm/s | 0.1 to 10 | 100 to 1000 nM | ≥ 1000 nM | Cc1cccnc1C1CCCN1Cc1ccccn1 (stereo not shown) [Compound I-39] |
| 0.1 to 10 ×10⁻⁶ cm/s | > 30 ×10⁻⁶ cm/s | 10 to 30 | 0.01 to 100 nM | 0.01 to 100 nM | Cc1cccnc1C1CCCN1Cc1nc2ccccn2c1N1CCN(C)CC1 (stereo not shown) [Compound I-40] |
| 10 to 30 ×10⁻⁶ cm/s | > 30 ×10⁻⁶ cm/s | 0.1 to 10 | 0.01 to 100 nM | 100 to 1000 nM | CN1CCN(c2cccc3nc(CN4CCCC4c4ccccn4)[nH]c23)CC1 (stereo not shown) [Compound I-44] |
| 0.1 to 10 ×10⁻⁶ cm/s | 10 to 30 ×10⁻⁶ cm/s | > 30 | 0.01 to 100 nM | 100 to 1000 nM | Cc1cccnc1C1CCCN1Cc1nc2cccc(N3CCN(C)CC3)n2c1C (stereo not shown) [Compound I-46] |
